The results in this text go back to ChEMBL document CHEMBL1127364, “L-735,524: the design of a potent and orally bioavailable HIV protease inhibitor” (J Med Chem, 1994).

Data set [1] addresses Human immunodeficiency virus type 1 protease (Human immunodeficiency virus 1, UniProt Q72874). Description: Evaluated for the inhibition of HIV protease.
Data set [2] deals with Human immunodeficiency virus type 1 protease (Human immunodeficiency virus 1) (UniProt Q72874). Description: Inhibition of the spread of HIV-1 IIIb infection in MT-4 human T-lymphoid cells. The format is functional, cell-based.
A short description of data set [3]: Compound was evaluated for the solubility at pH value of 7.4. Particulars: pH 7.4. The format is physicochemical.
The nature of data set [4]: Partition coefficient of the compound was evaluated. As to conditions: octanol/water. The format is physicochemical.
Data set [5] concerns MT4. Description: Compound was evaluated for the inhibition of the spread of HIV-1 IIIb infection in MT-4 human T-lymphoid cells; value ranges from […]-[…] nM. The format is functional. Particulars: read-out: CIC95.
The nature of data set [6]: Compound was evaluated for maximum plasma concentration levels in dogs at 10 mg/kg (in 0.05M citric acid solution) po. Particulars: dog.
Data set [7] relates to MT4. Description: Compound was evaluated for the inhibition of the spread of HIV-1 IIIb infection in MT-4 human T-lymphoid cells; value ranges from 25-100 nM. Particulars: read-out: CIC95. The format is functional.
The test system of data set [8] is MT4. Description: Compound was evaluated for the inhibition of the spread of HIV-1 IIIb infection in MT-4 human T-lymphoid cells; value ranges from 50-100 nM. The format is functional. As to conditions: read-out: CIC95.
The subject of data set [9] is MT4. Description: Compound was evaluated for the inhibition of the spread of HIV-1 IIIb infection in MT-4 human T-lymphoid cells; value ranges from 25-50 nM. The format is functional. Particulars: read-out: CIC95.

The term IC50 denotes the midpoint of a concentration-inhibition curve. Read a high IC50 as lower potency. Take `CC(C)(C)NC(=O)[C@@H]1CNCCN1C[C@@H](O)C[C@@H](Cc1ccccc1)C(=O)N[C@@H]1c2ccccc2C[C@H]1O`: in [1], the IC50 was 38 nM. Also, the IC95 in data set [2] was 3000 nM.
The solubility is how much of the substance goes into solution per volume. Low values mean a poorly soluble substance, high ones a readily soluble substance. As usually defined, the logP is the decadic logarithm of the partition coefficient of the neutral form, usually between octanol and water. A word on the Cmax: it is the maximum level reached in the sampled fluid or tissue. In data set [3], `CC(C)(C)NC(=O)[C@@H]1CN(S(=O)(=O)c2cccc3cccnc23)CCN1C[C@@H](O)C[C@@H](Cc1ccccc1)C(=O)N[C@@H]1c2ccccc2C[C@H]1O` had a solubility of under 1 µg/mL. Also, the logP in [4] was 3.7. The same compound came in with an IC50 in data set [1] of 0.013 nM. In addition, the IC95 in the data set on MT4 [5] is 12.5 nM. The compound further displayed a Cmax in data set [6] of under 0.1 µM.
In the case of `CC(C)(C)NC(=O)[C@@H]1CCCN1C[C@@H](O)C[C@@H](Cc1ccccc1)C(=O)N[C@@H]1c2ccccc2C[C@H]1O`, the IC50 in data set [1] amounted to 347 nM. In data set [2], this compound registered an IC95 of 1500 nM.
In the case of `CC(C)(C)NC(=O)[C@@H]1CN(C(=O)OCc2ccccc2)CCN1C[C@@H](O)C[C@@H](Cc1ccccc1)C(=O)NC1c2ccccc2C[C@H]1O` (single isomer, unassigned), the solubility in data set [3] is under 1 µg/mL. Further, the logP in [4] turned out to be 4.67. This compound also returned an IC50 in data set [1] of 0.36 nM. The compound further came in with an IC95 in [2] of 100 nM. In addition, the Cmax in data set [6] is under 0.1 µM.
For `CC(C)(C)NC(=O)[C@@H]1CN(CCOCc2ccccc2)CCN1C[C@@H](O)C[C@@H](Cc1ccccc1)C(=O)N[C@@H]1c2ccccc2C[C@H]1O`, the IC50 in [1] is 1.03 nM. In data set [2], this compound registered an IC95 of 100 nM.
With `CC(C)(C)NC(=O)[C@@H]1CN(C(=O)c2cc3ccccc3oc2=O)CCN1C[C@@H](O)C[C@@H](Cc1ccccc1)C(=O)N[C@@H]1c2ccccc2C[C@H]1O`, the half-maximal inhibitory concentration (IC50) in data set [1] was determined as 0.13 nM. This compound also showed an IC95 in data set [2] of 50 nM.
`CC(C)(C)NC(=O)[C@@H]1C[C@H](Oc2ccc3ccccc3c2)CN1C[C@@H](O)C[C@@H](Cc1ccccc1)C(=O)N[C@@H]1c2ccccc2C[C@H]1O` came in with an IC50 in [1] of 15 nM. Besides, in data set [2], the IC95 is over 400 nM.
Take `CCN1CCN(C[C@@H](O)C[C@@H](Cc2ccccc2)C(=O)N[C@@H]2c3ccccc3C[C@H]2O)[C@H](C(=O)NC(C)(C)C)C1`: in [1], the IC50 is 6.1 nM. The compound further came in with an IC95 in data set [2] of over 400 nM.
In data set [4], `CC(C)(C)NC(=O)[C@@H]1CN(Cc2cccnc2)CCN1C[C@@H](O)C[C@@H](Cc1ccccc1)C(=O)NC1c2ccccc2C[C@H]1O.O` (single isomer, unassigned) displayed a logP of 2.92. In the data set with MT4 [7], the IC95 was 25 nM. Also, the highest level in data set [6] (Cmax) was 11.4 µM.
As to `CC(C)(C)NC(=O)[C@@H]1CC2CCCCC2CN1C[C@@H](O)C[C@@H](Cc1ccccc1)C(=O)N[C@@H]1c2ccccc2C[C@H]1O` (some centres undefined), 7.8 nM corresponded to half-maximal inhibition in data set [1] (IC50). The IC95 in data set [2] came out at 400 nM.
The compound `CC(C)(C)NC(=O)[C@@H]1CN(Cc2ccccc2S)CCN1C[C@@H](O)C[C@@H](Cc1ccccc1)C(=O)N[C@@H]1c2ccccc2C[C@H]1O` displayed an IC50 in data set [1] of 0.54 nM. The IC95 in data set [2] amounted to 25 nM.
In data set [1], `CC(C)(C)NC(=O)[C@@H]1CN(Cc2ccncc2)CCN1C[C@@H](O)C[C@@H](Cc1ccccc1)C(=O)N[C@@H]1c2ccccc2C[C@H]1O` had an IC50 of 0.39 nM. The IC95 in the data set on MT4 [8] is 50 nM.
`CC(C)(C)NC(=O)[C@@H]1CN(CC(=O)OC(C)(C)C)CCN1C[C@@H](O)C[C@@H](Cc1ccccc1)C(=O)N[C@@H]1c2ccccc2C[C@H]1O` registered an IC50 in [1] of 0.81 nM. The same compound gave an IC95 in [2] of 100 nM.
Take `CC(C)(C)NC(=O)[C@@H]1CN(Cc2ccc(F)cc2F)CCN1C[C@@H](O)C[C@@H](Cc1ccccc1)C(=O)N[C@@H]1c2ccccc2C[C@H]1O`: in the data set with MT4 [9], the IC95 was determined as 25 nM. Further, the logP in data set [4] was 3.69. In data set [1], this compound came in with an IC50 of 0.31 nM. The compound further returned a Cmax in data set [6] of 0.73 µM.
Compound `CC(C)(C)NC(=O)[C@@H]1CCCCN1C[C@@H](O)C[C@@H](Cc1ccccc1)C(=O)N[C@@H]1c2ccccc2C[C@H]1O` came in with a concentration for half-maximal inhibition (IC50) in data set [1] of 80 nM.
The compound `CC(C)(C)NC(=O)[C@@H]1CN(Cc2ccccc2)CCN1C[C@@H](O)C[C@@H](Cc1ccccc1)C(=O)N[C@@H]1c2ccccc2C[C@H]1O` gave an IC50 in data set [1] of 0.3 nM. This compound came in with an IC95 in data set [2] of 50 nM.
Turning to `CC(C)(C)NC(=O)[C@@H]1CN(S(=O)(=O)c2cccnc2)CCN1C[C@@H](O)C[C@@H](Cc1ccccc1)C(=O)N[C@@H]1c2ccccc2C[C@H]1O`, inhibition in data set [1] was half-maximal at 0.3 nM (IC50). In data set [2], this compound yielded an IC95 of 200 nM.
The corresponding values for `Cc1nc(S(=O)(=O)N2CCN(C[C@@H](O)C[C@@H](Cc3ccccc3)C(=O)N[C@@H]3c4ccccc4C[C@H]3O)[C@H](C(=O)NC(C)(C)C)C2)c(C)s1` are 0.16 nM and 200 nM.
